From patent publication US20140249135A1, “PIM KINASE INHIBITORS AND METHODS OF THEIR USE” (NOVARTIS AG, priority 2007, published 2014) come the findings set out here.

A value given as a limit tells only on which side of the number the result lay.

What all share (assay type): biochemical
Assay [1] concerns the target Pim1 kinase (Homo sapiens, UniProt P11309). Nature of the assay: Pim1 ATP depletion assay.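 Note: Luciferase-luciferin luminescence readout of residual ATP after PIM1 transfers phosphate to a peptide substrate, 40 µM ATP added, reaction run to roughly half ATP consumption.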 The note with it: Pim1 ATP depletion assay; read-out: PIM1 IC50.
In assay [2] the target is Pim2 kinase (Homo sapiens, UniProt Q9P1W9). Put plainly: Pim2 ATP depletion assay.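 Note: Luciferase-based luminescent readout of ATP remaining after PIM2 phosphorylates a BAD peptide, final 5 nM enzyme, 4 µM ATP, 10 µM peptide, 2.5% DMSO, run to roughly half ATP consumption.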 The note with it: read-out: PIM2 IC50.
Chain of Pim2 kinase (Q9P1W9 whole entry): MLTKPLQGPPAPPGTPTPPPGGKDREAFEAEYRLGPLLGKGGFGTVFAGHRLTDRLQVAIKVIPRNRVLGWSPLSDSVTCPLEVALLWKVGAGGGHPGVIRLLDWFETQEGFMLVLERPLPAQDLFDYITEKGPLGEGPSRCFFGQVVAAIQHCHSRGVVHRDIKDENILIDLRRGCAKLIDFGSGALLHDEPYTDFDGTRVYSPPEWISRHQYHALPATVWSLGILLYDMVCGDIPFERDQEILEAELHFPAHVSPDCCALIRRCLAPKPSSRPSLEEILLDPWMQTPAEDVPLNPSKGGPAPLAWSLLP
The target in assay [3] is Pim3 kinase (Homo sapiens, UniProt Q86V86). Put plainly: Pim3 ATP depletion assay. The note with it: read-out: PIM3 IC50.

Chain of Pim1 kinase (P11309 whole entry): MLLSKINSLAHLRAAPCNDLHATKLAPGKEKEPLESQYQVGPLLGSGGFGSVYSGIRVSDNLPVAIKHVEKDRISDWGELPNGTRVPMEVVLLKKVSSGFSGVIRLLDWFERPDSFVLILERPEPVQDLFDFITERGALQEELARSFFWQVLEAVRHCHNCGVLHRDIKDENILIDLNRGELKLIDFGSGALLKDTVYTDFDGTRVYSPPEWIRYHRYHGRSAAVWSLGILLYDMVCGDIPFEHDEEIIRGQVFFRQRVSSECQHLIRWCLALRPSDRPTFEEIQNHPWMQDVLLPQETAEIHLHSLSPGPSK

As to `CC(C)NC(=O)c1ccc(F)c(-c2cccc(C(=O)Nc3cnccc3-c3cc(N)nc(C(F)(F)F)n3)n2)c1` [Example 553, 6-(2-Fluoro-5-isopropylcarbamoyl-phenyl)-pyridine-2-carboxylic acid [4-(6 amino-2-trifluoromethyl-pyrimidin-4-yl)-pyridin-3-yl]-amide], the IC50 in assay [1], in assay [2] and in assay [3] was under 1000 nM each time.

`CC(C)NC(=O)c1ccc(F)c(-c2ccc(N)c(C(=O)Nc3cnccc3-c3cc(N)nc(C(F)(F)F)n3)n2)c1` [Example 554, 3-Amino-6-(2-fluoro-5-isopropylcarbamoyl-phenyl)-pyridine-2-carboxylic acid [4-(6-amino-2-trifluoromethyl-pyrimidin-4-yl)-pyridin-3-yl]-amide]: the concentration for half-maximal inhibition (IC50) in assay [1], in assay [2] and in assay [3] was under 1000 nM throughout.

For `CCc1cccc(-c2ccc(N)c(C(=O)Nc3cnccc3-c3cc(N)nc(C)n3)n2)c1` [Example 555, 3-Amino-6-(3-ethyl-phenyl)-pyridine-2-carboxylic acid [4-(6-amino-2-methyl-pyrimidin-4-yl)-pyridin-3-yl]-amide], the IC50 in assay [1], in assay [2] and in assay [3] was under 1000 nM throughout.

For the compound `Cc1csc(-c2ccc(N)c(C(=O)Nc3cnccc3-c3cc(N)nc(C)n3)n2)c1` [Example 556, 3-Amino-6-(4-methyl-thiophen-2-yl)-pyridine-2-carboxylic acid [4-(6-amino-2-methyl-pyrimidin-4-yl)-pyridin-3-yl]-amide], the IC50 in assay [1], in assay [2] and in assay [3] was under 1000 nM each time.

Take `Cc1nc(N)cc(-c2ccncc2NC(=O)c2nc(-c3ccc(C(F)(F)F)cc3F)ccc2N)n1` [Example 557, 3-Amino-6-(2-fluoro-4-trifluoromethyl-phenyl)-pyridine-2-carboxylic acid [4-(6-amino-2-methyl-pyrimidin-4-yl)-pyridin-3-yl]-amide]: the IC50 in assay [1], in assay [2] and in assay [3] was under 1000 nM each time.

In the case of `Cc1ccc(-c2ccc(N)c(C(=O)Nc3cnccc3-c3cc(N)nc(C)n3)n2)c(F)c1` [Example 558, 3-Amino-6-(2-fluoro-4-methyl-phenyl)-pyridine-2-carboxylic acid [4-(6-amino-2-methyl-pyrimidin-4-yl)-pyridin-3-yl]-amide], the IC50 in assay [1], in assay [2] and in assay [3] was under 1000 nM each time.

Turning to `Cc1nc(N)cc(-c2ccncc2NC(=O)c2nc(-c3ccccc3)ccc2N)n1` [Example 559, 3-Amino-6-phenyl-pyridine-2-carboxylic acid [4-(6-amino-2-methyl-pyrimidin-4-yl)-pyridin-3-yl]-amide], the IC50 in assay [1], in assay [2] and in assay [3] was under 1000 nM each time.

For the compound `Cc1cc(-c2ccncc2NC(=O)c2nc(-c3cc(C(=O)NC(C)C)ccc3F)c(F)cc2N)nc(N)n1` [Example 560, 3-Amino-5-fluoro-6-(2-fluoro-5-isopropylcarbamoyl-phenyl)-pyridine-2-carboxylic acid [4-(2-amino-6-methyl-pyrimidin-4-yl)-pyridin-3-yl]-amide], the IC50 in assay [1], in assay [2] and in assay [3] was under 1000 nM throughout.

`Cc1nc(N)cc(-c2ccncc2NC(=O)c2nc(-c3cc(C(=O)N(C)C)ccc3F)c(F)cc2N)n1` [Example 561, 3-Amino-6-(5-dimethylcarbamoyl-2-fluoro-phenyl)-5-fluoro-pyridine-2-carboxylic acid [4-(6-amino-2-methyl-pyrimidin-4-yl)-pyridin-3-yl]-amide]: the IC50 in assay [1], in assay [2] and in assay [3] was under 1000 nM in each case.

In the case of `CCCOc1ccc(F)c(-c2ccc(N)c(C(=O)Nc3cnccc3-c3cc(C)nc(N)n3)n2)c1F` [Example 562, 3-Amino-6-(2,6-difluoro-3-propoxy-phenyl)-pyridine-2-carboxylic acid [4-(2-amino-6-methyl-pyrimidin-4-yl)-pyridin-3-yl]-amide], the IC50 in assay [1], in assay [2] and in assay [3] was under 1000 nM each time.

Regarding `Cc1cc(-c2ccncc2NC(=O)c2nc(-c3cc(C(=O)NC(C)C)ccc3F)ccc2N)nc(N)n1` [Example 563, 3-Amino-6-(2-fluoro-5-isopropylcarbamoyl-phenyl)-pyridine-2-carboxylic acid [4-(2-amino-6-methyl-pyrimidin-4-yl)-pyridin-3-yl]-amide], the IC50 in assay [1], in assay [2] and in assay [3] was under 1000 nM each time.

As to `Cc1cc(-c2ccncc2NC(=O)c2nc(-c3cc(C(=O)N(C)C)ccc3F)ccc2N)nc(N)n1` [Example 564, 3-Amino-6-(5-dimethylcarbamoyl-2-fluoro-phenyl)-pyridine-2-carboxylic acid [4-(2-amino-6-methyl-pyrimidin-4-yl)-pyridin-3-yl]-amide], the IC50 in assay [1], in assay [2] and in assay [3] was under 1000 nM in each case.

Take `CCCNC(=O)c1ccc(F)c(-c2ccc(N)c(C(=O)Nc3cnccc3-c3cc(N)nc(C)n3)n2)c1` [Example 565, 3-Amino-6-(2-fluoro-5-propylcarbamoyl-phenyl)-pyridine-2-carboxylic acid [4-(6-amino-2-methyl-pyrimidin-4-yl)-pyridin-3-yl]-amide]: the IC50 in assay [1], in assay [2] and in assay [3] was under 1000 nM throughout.

`Nc1ccc(-c2cccc(CN3CCOCC3)c2)nc1C(=O)Nc1cnccc1N1CCC[C@H](N)C1` [Example 566, 3-Amino-6-(3-morpholin-4-ylmethyl-phenyl)-pyridine-2-carboxylic acid (3-amino-3,4,5,6-tetrahydro-2H-[1,4′]bipyridinyl-3′-yl)-amide]: the IC50 in assay [1], in assay [2] and in assay [3] was under 1000 nM throughout.

For the compound `Nc1ccc(-c2ccc(CN3CCOCC3)cc2)nc1C(=O)Nc1cnccc1N1CCC[C@H](N)C1` [Example 567, 3-Amino-6-(4-morpholin-4-ylmethyl-phenyl)-pyridine-2-carboxylic acid (3-amino-3,4,5,6-tetrahydro-2H-[1,4′]bipyridinyl-3′-yl)-amide], the IC50 in assay [1], in assay [2] and in assay [3] was under 1000 nM each time.

On to `N[C@H]1CCCN(c2ccncc2NC(=O)c2nc(-c3ccccc3)ccc2F)C1` [Example 568, 3-Fluoro-6-phenyl-pyridine-2-carboxylic acid (3-amino-3,4,5,6-tetrahydro-2H-[1,4′]bipyridinyl-3′-yl)-amide], for which the IC50 in assay [1], in assay [2] and in assay [3] was under 1000 nM each time.

For the compound `CC(C)NC(=O)c1ccc(F)c(-c2ccc(F)c(C(=O)Nc3cnccc3N3CCC[C@H](N)C3)n2)c1` [Example 569, 3-Fluoro-6-(2-fluoro-5-isopropylcarbamoyl-phenyl)-pyridine-2-carboxylic acid (3-amino-3,4,5,6-tetrahydro-2H-[1,4′]bipyridinyl-3′-yl)-amide], the IC50 in assay [1], in assay [2] and in assay [3] was under 1000 nM throughout.

On to `N[C@H]1CCCN(c2ccncc2NC(=O)c2nc(-c3ccccc3F)ccc2F)C1` [Example 571, 3-Fluoro-6-(2-fluoro-phenyl)-pyridine-2-carboxylic acid (3-amino-3,4,5,6-tetrahydro-2H-[1,4′]bipyridinyl-3′-yl)-amide], for which the IC50 in assay [1], in assay [2] and in assay [3] was under 1000 nM in each case.

`Nc1cc(-c2ccncc2NC(=O)c2nc(-c3ccc(CN4CCOCC4)cc3)ccc2N)nc(C(F)(F)F)n1` [Example 572, 3-Amino-6-(4-morpholin-4-ylmethyl-phenyl)-pyridine-2-carboxylic acid [4-(6-amino-2-trifluoromethyl-pyrimidin-4-yl)-pyridin-3-yl]-amide]: the IC50 in assay [1], in assay [2] and in assay [3] was under 1000 nM in each case.

For `CN1CCN(c2cc(-c3ccc(N)c(C(=O)Nc4cnccc4-c4cc(N)nc(C(F)(F)F)n4)n3)ccn2)CC1` [Example 573, 5-Amino-2′-(4-methyl-piperazin-1-yl)-[2,4′]bipyridinyl-6-carboxylic acid [4-(6-amino-2-trifluoromethyl-pyrimidin-4-yl)-pyridin-3-yl]-amide], the IC50 in assay [1], in assay [2] and in assay [3] was under 1000 nM throughout.

Consider `CN1CCN(c2ccc(-c3ccc(N)c(C(=O)Nc4cnccc4-c4cc(N)nc(C(F)(F)F)n4)n3)cc2)CC1` [Example 574, 3-Amino-6-[4-(4-methyl-piperazin-1-yl)-phenyl]-pyridine-2-carboxylic acid [4-(6-amino-2-trifluoromethyl-pyrimidin-4-yl)-pyridin-3-yl]-amide], for which the IC50 in assay [1], in assay [2] and in assay [3] was under 1000 nM in each case.

On to `NC1CC(CO)CN(c2ccncc2NC(=O)c2nc(-c3c(F)cccc3F)ccc2F)C1` (stereo not drawn) [Example 575, 6-(2,6-Difluoro-phenyl)-3-fluoro-pyridine-2-carboxylic acid (5-amino-3-hydroxymethyl-3,4,5,6-tetrahydro-2H-[1,4′]bipyridinyl-3′-yl)-amide], for which the IC50 – broadly, the concentration that gives 50% inhibition – in assay [1] is under 1000 nM; in assay [2], under 1000 nM; in assay [3], 1000 to 10000 nM.

Take `Nc1ccc(-c2c(F)cccc2F)nc1C(=O)Nc1cnccc1N1CC(N)CC(CO)C1` (stereo not drawn) [Example 576, 3-Amino-6-(2,6-difluoro-phenyl)-pyridine-2-carboxylic acid (5-amino-3-hydroxymethyl-3,4,5,6-tetrahydro-2H-[1,4′]bipyridinyl-3′-yl)-amide]: the IC50 in assay [1], in assay [2] and in assay [3] was under 1000 nM throughout.
